In patent US20020022659A1, “Crystalline and salt forms of an HIV protease inhibitor” (priority 2000, published 2002):
Values after ≈ are worked out from the molar mass of the structure shown.

Legend:
HIV protease = HIV protease (Human immunodeficiency virus type 1 group M subtype B, UniProt P04585); test: HIV protease inhibition (stated as tested, no method given); assay type: biochemical
HIV-1 (RF) = test: HIV RNA assay, microplate based compound evaluation in HIV-1 infected MT-2 cells; assay type: cell-based; conditions: Human immunodeficiency virus 1, MT2, 72 h; HIV-1 (RF) infected MT-2 cells, 3 days of culture; virus dilutions selected to give this value (inoculum standardisation); read-out: IC90 value (concentration of compound required to reduce the HIV RNA level by 90%)
Protocol: DNA Plasmids and in vitro RNA Transcripts:
Plasmid pDAB 72 containing both gag and pol sequences of BH10 (bp 113-1816) cloned into PTZ 19R was prepared according to Erickson-Viitanen et al. AIDS Research and Human Retroviruses 1989, 5, 577. The plasmid was linearized with Bam HI prior to the generation of in vitro RNA transcripts using the Riboprobe Gemini system II kit (Promega) with T7 RNA polymerase. Synthesized RNA was purified by treatment with RNase free DNAse (Promega), phenol-chloroform extraction, and ethanol precipitation. RNA transcripts were dissolved in water, and stored at −70° C. The concentration of RNA was determined from the A260.
Biotinylated capture probes were purified by HPLC after synthesis on an Applied Biosystems (Foster City, Calif.) DNA synthesizer by addition of biotin to the 5′ terminal end of the oligonucleotide, using the biotin-phosphoramidite reagent of Cocuzza, Tet. Lett. 1989, 30, 6287. […]
MT-2 and MT-4 cells were maintained in RPMI 1640 supplemented with 5% fetal calf serum (FCS) for MT-2 cells or 10% FCS for MT-4 cells, 2 mM L-glutamine and 50 μg/mL gentamycin, all from Gibco. […] Infectious titers of HIV-1(RF) stocks were 1-3×10^7 PFU (plaque forming units)/mL as measured by plaque assay on MT-2 cells (see below). […]

[1] = Polymorphic relationship of the mono-methane sulfonate forms (relative stability); assay type: physicochemical; conditions: anhydrous monotropic polymorphs of the mono-methane sulfonate; between 20° C. and 206° C.
Description: Form I and Form II are anhydrous monotropic polymorphs. […] Form II, the higher melting form, can be formed directly from crystallization as described above, while Form I can be synthesized using ethyl acetate followed by drying. However, the crystal packing of the ethyl acetate solvate and Form I are distinct from each other confirming that Form I is an actual anhydrous form.

CC(C)CN(C[C@@H](O)[C@H](Cc1ccccc1)NC(=O)[C@@H](NC(=O)CNCc1cccc(F)c1)C(C)(C)C)S(=O)(=O)c1cccc(N)c1 [Compound A]
HIV protease inhibitor activity (HIV protease): potent HIV protease inhibitor

Nc1ccn([C@H]2CC[C@@H](CO)O2)c(=O)n1 [ddC, dideoxycytidine]
IC90 (HIV-1 (RF)): 0.2 µg/mL (≈ 0.947 µM)

CC(C)CN(C[C@@H](O)[C@H](Cc1ccccc1)NC(=O)[C@@H](NC(=O)CNCc1cccc(F)c1)C(C)(C)C)S(=O)(=O)c1cccc(N)c1 [Form II]
Relative stability of polymorphs [1]: more stable than Form I
